Reference: US10227331B2 (priority 2015, dated 2019)
Where two headings read alike, the source gives them in different places.

Key:
NDM-1 = NDM-1 (Klebsiella pneumoniae, UniProt C7C422); experiment: biochemical; format: biochemical
Method in brief: (§1)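 Two-hour, 25° C incubation of enzyme with inhibitor and CCF2-FA (7-hydroxycoumarin–cephalosporin–fluorescein). Fluorescence read-out; IC50 via 4-parameter fit.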

IMP-1 = IMP-1 (Serratia marcescens, UniProt P52699); experiment: biochemical; format: biochemical; conditions: CCF2-FA substrate, 2 hours at 25° C; read-out: IMP-1 IC50
Sequence of IMP-1 (P52699 whole entry, looked up, species assumed): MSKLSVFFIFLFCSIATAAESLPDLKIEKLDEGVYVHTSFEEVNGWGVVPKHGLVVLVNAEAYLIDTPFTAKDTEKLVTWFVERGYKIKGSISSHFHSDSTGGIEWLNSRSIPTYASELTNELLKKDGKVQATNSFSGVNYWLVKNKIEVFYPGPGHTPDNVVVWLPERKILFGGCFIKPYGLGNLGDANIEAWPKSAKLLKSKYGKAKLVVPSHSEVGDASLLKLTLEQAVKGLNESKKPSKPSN
Method in brief: as §1

[1] = system: Escherichia coli expressing NDM-1 (CLB30005, CLB30016); format: cell-based; conditions: NDM-1 (CLB30016), with imipenem 1 μg/ml, 95% inhibition of bacterial growth
Method in brief: (§2)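 Colonies from overnight 35 °C blood-agar cultures were suspended in saline, diluted 1:100 into 1.1× CAMHB and exposed to test compound with or without imipenem at 1 μg/ml. After 22–24 h at 35 °C, absorbance was read to find the concentration restoring imipenem susceptibility.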

[2] = system: Klebsiella pneumoniae expressing VIM-1 (IHMA599644); format: cell-based; conditions: VIM-1 (IHMA599644), with imipenem 1 μg/ml, 95% inhibition of bacterial growth
Method in brief: as §2

[3] = system: Serratia marcescens expressing IMP-1 (CL5741); format: cell-based; conditions: IMP-1 (CL5741), with imipenem 1 μg/ml, 95% inhibition of bacterial growth
Method in brief: as §2

[4] = system: P. aeruginosa expressing IMP-1, efflux− (MB9799); experiment: Efflux: concentration of MBL inhibitor which restores susceptibility to imipenem; format: cell-based, Pseudomonas aeruginosa; conditions: imipenem at 2 μg/mL, in the presence of a class A, C, D serine β-lactamase inhibitor closely related to relebactam
Description: (§3) The strain background is Pseudomonas aeruginosa PAO1.

[5] = system: P. aeruginosa expressing IMP-1, efflux+ (MB9798); format: cell-based, Pseudomonas aeruginosa; conditions: for P. aeruginosa expressing IMP-1, efflux+ (MB9798) MITC95: imipenem at 2 μg/mL, in the presence of a class A, C, D serine β-lactamase inhibitor closely related to relebactam; for Efflux ratio: ratio MITC95 PA_9798/MITC95 PA_9799
Description: as §3

VIM-1 = VIM-1 (Pseudomonas aeruginosa (strain ATCC 15692 / DSM 22644 / CIP 104116 / JCM 14847 / LMG 12228 / 1C / PRS 101 / PAO1), UniProt A0A0F7KYQ8); experiment: biochemical; conditions: CCF2-FA substrate, 2 hours at 25° C
Method in brief: as §1

[6] = CCF2-FA substrate, 2 hours at 25° C, read-out: NDM-1 IC50

Sequence of NDM-1 (C7C422 whole entry, looked up, species assumed): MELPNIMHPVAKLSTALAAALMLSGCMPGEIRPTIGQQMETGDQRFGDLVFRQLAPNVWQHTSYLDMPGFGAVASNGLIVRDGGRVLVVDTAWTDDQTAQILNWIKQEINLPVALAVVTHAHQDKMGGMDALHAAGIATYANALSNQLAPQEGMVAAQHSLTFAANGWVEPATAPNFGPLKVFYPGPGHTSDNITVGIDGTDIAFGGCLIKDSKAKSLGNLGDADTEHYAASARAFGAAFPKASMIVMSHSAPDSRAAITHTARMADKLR

Compound	IC50 (NDM-1; [6]) [pM]	IC50 (IMP-1) [pM]	Escherichia coli MITC95 [1] [µM]	Klebsiella pneumoniae MITC95 [2] [µM]	Serratia marcescens MITC95 [3] [µM]	P. aeruginosa expressing IMP-1, efflux− (MB9799) MITC95 [4] [µM]	P. aeruginosa expressing IMP-1, efflux+ (MB9798) MITC95 [5] [µM]	Efflux ratio [5]	IC50 (VIM-1) [pM]	IC50 (NDM-1) [pM]
Nc1nc2cc(F)cc(-c3ccc(S(=O)(=O)C4CNC4)c(S(N)(=O)=O)c3-c3nnn[nH]3)c2[nH]1 [Example 262, 3-(2-amino-5-fluoro-1H-benzo[d]imidazol-7-yl)-6-(azetidin-3-ylsulfonyl)-2-(1H-tetrazol-5-yl) benzenesulfonamide]	80.3	506	0.7813	3.125	1.563	0.7813	0.7813	1.00	322	
Nc1n[nH]c2cccc(-c3ccc(S(=O)(=O)C4CNC4)c(S(N)(=O)=O)c3-c3nnn[nH]3)c12 [Example 263, 3-(3-amino-1H-indazol-4-yl)-6-(azetidin-3-ylsulfonyl)-2-(1H-tetrazol-5-yl) benzenesulfonamide]	431	4590	1.563	6.25	1.563	3.125	6.25	2.00	594	
Nc1n[nH]c2ccc(-c3ccc(S(=O)(=O)C4CNC4)c(S(N)(=O)=O)c3-c3nnn[nH]3)cc12 [Example 264, 3-(3-amino-1H-indazol-5-yl)-6-(azetidin-3-ylsulfonyl)-2-(1H-tetrazol-5-yl) benzenesulfonamide]	364	1820	3.125	3.125	1.563	0.7813	6.25	8.00	175	
Cn1nc(N)c2c(-c3ccc(S(=O)(=O)C4CNC4)c(S(N)(=O)=O)c3-c3nnn[nH]3)cccc21 [Example 265, 3-(3-amino-1-methyl-1H-indazol-4-yl)-6-(azetidin-3-ylsulfonyl)-2-(1H-tetrazol-5-yl) benzenesulfonamide]	168	1490	3.125	6.25	1.563	1.563	6.25	4.00	239	
Cn1nc(N)c2c(-c3ccc(S(=O)(=O)CCN)c(S(N)(=O)=O)c3-c3nnn[nH]3)cccc21 [Example 266, 3-(3-amino-1-methyl-1H-indazol-4-yl)-6-((2-aminoethyl)sulfonyl)-2-(1H-tetrazol-5-yl) benzenesulfonamide]	198	643	6.25	6.25	3.125	3.125	6.25	2.00	232	
C[C@@H](N)CS(=O)(=O)c1ccc(-c2cccc3[nH]c(N)nc23)c(-c2nn[nH]n2)c1S(N)(=O)=O [Example 267, 3-(2-amino-1H-benzo[d]imidazol-4-yl)-6-((R)-2-aminopropylsulfonyl)-2-(2H-tetrazol-5-yl)benzenesulfonamide]	213	964	0.3906	1.563	0.7813	0.7813	0.7813	1.00	517	
C[C@@H](N)CS(=O)(=O)c1ccc(-c2cccc3sc(N)nc23)c(-c2nn[nH]n2)c1S(N)(=O)=O [Example 268, 3-(2-aminobenzo[d]thiazol-4-yl)-6-((R)-2-aminopropylsulfonyl)-2-(2H-tetrazol-5-yl)benzenesulfonamide]	177	363	1.563	3.125	1.563	1.563	1.563	1.00	329	
CC(N)CS(=O)(=O)c1ccc(-c2cccc3sc(N)nc23)c(-c2nn[nH]n2)c1S(N)(=O)=O (stereo not drawn) [Example 269, 3-(2-aminobenzo[d]thiazol-4-yl)-6-(2-aminopropylsulfonyl)-2-(2H-tetrazol-5-yl)benzenesulfonamide]	116	152	1.563	3.125	1.563	0.7813	0.7813	1.00	176	
Cl.Cl.NCCCS(=O)(=O)c1ccc(-c2cccc3[nH]c(N)nc23)c(-c2nn[nH]n2)c1S(N)(=O)=O [Example 270, 3-(2-amino-1H-benzo[d]imidazol-4-yl)-6-(3-aminopropylsulfonyl)-2-(2H-tetrazol-5-yl)benzenesulfonamide dihydrochloride]	143	625	0.125	0.8906	0.6406	0.4453	0.4453	1.00	228	
NCCS(=O)(=O)c1ccc(-c2ccnc3c2CCCC3)c(-c2nn[nH]n2)c1S(N)(=O)=O [Example 271, 6-(2-aminoethylsulfonyl)-3-(5,6,7,8-tetrahydroquinolin-4-yl)-2-(2H-tetrazol-5-yl)benzenesulfonamide]	1330	687	3.125	3.125	3.125	1.563	12.5	8.00	177	
NCCS(=O)(=O)c1ccc(C2CCNc3ccccc32)c(-c2nn[nH]n2)c1S(N)(=O)=O (stereo not drawn) [Example 272, 6-(2-aminoethylsulfonyl)-3-(1,2,3,4-tetrahydroquinolin-4-yl)-2-(2H-tetrazol-5-yl)benzenesulfonamide]		6060	3.125	6.25	6.25	1.563	100	63.98	640	1840
Nc1nc2c(-c3ccc(S(=O)(=O)C[C@H](N)CO)c(S(N)(=O)=O)c3-c3nn[nH]n3)cccc2[nH]1 [Example 273, 3-(2-amino-1H-benzo[d]imidazol-4-yl)-6-((R)-2-amino-3-hydroxypropylsulfonyl)-2-(2H-tetrazol-5-yl)benzenesulfonamide]	147	709	0.3906	1.563	1.563	0.7813	0.7813	1.00	254	
Nc1nc2c(-c3ccc(S(=O)(=O)C[C@@H](N)CO)c(S(N)(=O)=O)c3-c3nn[nH]n3)cccc2[nH]1 [Example 274, 3-(2-amino-1H-benzo[d]imidazol-4-yl)-6-((S)-2-amino-3-hydroxypropylsulfonyl)-2-(2H-tetrazol-5-yl)benzenesulfonamide]	113	431	0.7813	1.563	1.563	0.7813	0.7813	1.00	206	
C[C@@H](N)CS(=O)(=O)c1ccc(-c2cccc3c2nc(N)n3C)c(-c2nn[nH]n2)c1S(N)(=O)=O [Example 275, 3-(2-amino-1-methyl-1H-benzo[d]imidazol-4-yl)-6-((R)-2-aminopropylsulfonyl)-2-(2H-tetrazol-5-yl)benzenesulfonamide]	582	840	0.5	1.781	0.8906	0.8906	2.563	2.88	696	
